Results published in patent US20130053320A1, “TREATMENT OF ANEMIA BY ADNP AND ADNF POLYPEPTIDES” (Ramot at Tel-Aviv University, Ltd., priority 2010, published 2013).

Assays:
[1] = system: MEL cells; assay: MEL cell erythroid differentiation, marker mRNA by Real-Time PCR; assay type: cell-based, mouse
Method: MEL cells were a gift from Prof. N. Shaklai (Tel Aviv University, Israel). Cells were cultured at 37° C. in 5% CO2 incubator in RPMI-1640 medium supplemented with 10% fetal calf serum, 2 mM L-glutamine, 100 U/ml penicillin, 0.1 mg/ml streptomycin and 12.5 U/ml nystatin (Biological Industries, Beit Haemek, Israel). To induce erythroid differentiation, 2% DMSO (v/v, Sigma, St. Louis, Mo., USA) was added for 4 days.
2 ADNP shRNA clones (sh68 and sh71, Sigma) were used for mouse ADNP (NM_009628) silencing in MEL cells, as before (Mandel et al., 2008, J Mol Neurosci 35, 127-141). […] For mouse ADNP2 (NM_175028) silencing, a mixture of 2 stealth small interfering RNA (siRNA) duplexes (Invitrogen, Carlsbad, Calif., USA) was used.
Transfections were performed using Lipofectamine-2000 (Invitrogen). 6 hours after transfection, 2% DMSO was added to the cells for 4 days in order to induce erythroid differentiation. On the 4th day, cells were harvested, RNA was extracted and expression levels of ADNP, ADNP2, band3, β-globin, Brg1 and c-kit were evaluated.
Total RNA from MEL cells was extracted by the RNeasy Plus Mini Kit (Qiagen, Hilden, Germany). RNA integrity was determined by fractionation on 1% agarose gel and staining with ethidium bromide. RNA quantity (OD260) was determined by NanoDrop spectrophotometer (NanoDrop Technologies, Wilmington, Del., USA).
Samples with the same amount of total RNA were used to synthesize single-strand cDNA employing the Applied Biosystems High Capacity cDNA Reverse Transcription Kit (Applied Biosystems, Foster City, Calif., USA) and random hexamers primers as before (Dresner et al., 2010, supra). Primer pairs (see Table 1) were designed using the primer 3 web interface (website: frodo.wi.mit.edu/primer3/) and synthesized by Sigma-Genosys (The Woodlands, Tex., USA). To avoid amplification of contaminating genomic DNA, primers were designed to exon-exon junction. […]

[2] = system: MEL cells; assay: Growth of MEL cells during differentiation (viable cell counts); assay type: cell-based, mouse; conditions: 2% DMSO vs ND cells
Method: FIG. 4: ADNP and ADNP2 are required for mouse erythroid differentiation. (A-C) MEL cells were differentiated with 2% DMSO for 4 days and compared to non-differentiated (ND) cells incubated for the same time period. Results are means±S.E.M analyzed by student's t-test (*p<0.05, **p<0.01, ***p<0.001). (A) The picture depicts the red pellet (Hb) of differentiated (D) cells compared to the white pellet of ND cells. (B) mRNA expression levels of β-globin, band3 and c-kit in D versus ND MEL cells. 4 experiments were performed, each in duplicates. Data is presented in logarithmic scale as fold change from the expression level in the ND state. (C) Growth curves of D and ND MEL cells. Results are % of the number of cells at plating (100%). […] Real-Time PCR analysis determined ADNP, ADNP2, β-globin, band3 and c-kit expression levels. […] Results, means±S.E.M were analyzed using student's t-test (*p<0.05, **p<0.01, ***p<0.001, relative to control cells, transfected with non-specific shRNA/siRNA sequences). (F+G) MEL cells were transfected with ADNP/ADNP2 shRNA/siRNA respectively, and viable cells were counted every 24 hrs during 4 days differentiation process with 2% DMSO. […] Results are presented as % from the number of cells at plating (100%), and analyzed using student's t-test (**p<0.01, relative to number of control cells, transfected with non-specific siRNA or shRNA sequences). […]

[3] = system: zebrafish embryos; assay: Morpholino knockdown in zebrafish embryos, observation of blood and morphology; assay type: in vivo; conditions: for cardiac edema / smaller head and eyes: MO-injected embryos; for morphology and development: MO-injected embryos vs control; for smaller head and eyes: FIG. 2C; for blood colour: at 72 hpf, vs red blood of control embryos; for blood cells in circulation: starting from 28 hpf, vs control-MO injected embryos
Method: (§1) Gene knockdown experiments were performed using morpholino-modified antisense oligonucleotides (MO's, Gene Tools, Philomath, Oreg., USA). MO's were injected into wild type embryos, immediately after fertilization (2 nl, 1-2 mM). This was followed by a daily monitoring of the embryos for 10 days. MO's sequences were chosen through the Gene Tools oligonucleotide design service. A splicing MO, directed to intron3-exon4 boundary, was designed to block adnp1a (adnp1a-MO, 5′-[…]-3′). The efficiency of the adnp1a splicing MO was evaluated by RT-PCR. Translation MO's were designed to block adnp1b, adnp2a and adnp2b (adnp1 b-MO, 5′-[…]-3′; adnp2a-MO: 5′-[…]-3′; adnp2b-MO: 5′-[…]-3′). BLAST analysis was performed to verify that the MO's were not predicted to bind gene sequences other than their targets, and that their target sequence was not conserved among the other zebrafish adnp1 and adnp2 genes. Gene-Tools standard control-MO, which has not been reported to have other targets or generate any phenotypes, was used as a negative control (5-[…]-3′). Injections were repeated in at least 4 independent experiments for each MO.
For adnp2a-MO injected embryos, blood circulation was evaluated at 48 hpf. For the 3 other MO's, circulation was examined at 72 hpf when red blood is easily seen. Based on observation, embryos were divided to have normal blood cells, no blood cells or hypochromic and/or fewer blood cells.

[4] = system: zebrafish embryos; assay: O-dianisidine staining of Hb in whole MO-injected embryos; assay type: in vivo; conditions: for Hemoglobin (Hb) staining, Hb content: 48 hpf and 72 hpf; for O-dianisidine staining: 48 hpf, vs control embryos (legend FIG. 2F)
Method: as §1
Hb activity was detected in whole embryos by performing o-dianisidine staining as described (Iuchi and Yamamoto, 1983, J Exp Zool 226, 409-417).

[5] = system: zebrafish embryos; assay: Whole-mount in situ hybridization (WMISH) of hematopoietic markers in MO-injected embryos; assay type: in vivo
Method: as §1
Transcripts of sci (NM_213237), lmo2 (NM_131111), gata1 (NM_131234), band3 (NM_198338), embryonic α-globin 1 (NM_182940), lys-C(NM_139180), l-plastin (NM_131320), ikaros (NM_130986), c-myb (NM_131266), irx7 (NM_131881), flk1 (NM_131472), cmlc2 (NM_131329), adnp1a (NM_001080015), adnp1b (XM—002666474), adnp2a (NM_001098265) and adnp2b (NM_001080013) were detected by WMISH using digoxygenin (DIG) labeled antisense RNA probes at a concentration of 1 ng/μl. Transcription of RNA probes was performed from pGEM-T Easy plasmids linearized before the coding sequence, using SP6 or T7 RNA polymerases (DIG RNA labeling kit, Roche Applied Science, Penzberg, Germany). Embryos at different developmental stages were fixed overnight in 4% paraformaldehyde and stored in 100% methanol. WMISH was performed as describe (Ziv et al., 2005, supra). Fixed embryos were then placed in 70% glycerol for observation and photography using a dissecting stereoscope (SZX12, Olympus) equipped with digital camera (DP70, Olympus). In each experiment, embryos hybridized with the same probe were stained under the same conditions and for the same time period using identical microscopic and camera settings.

[6] = 2% DMSO for 4 days vs non-differentiated cells

| Molecule | cardiac edema [3] | morphology and development [3] | smaller head and eyes [3] | blood colour [3] | blood cells in circulation [3] | Hemoglobin (Hb) staining, Hb content [4] | O-dianisidine staining [4] | other results |
| --- | --- | --- | --- | --- | --- | --- | --- | --- |
| C[S+](C)[O-] [DMSO] |  |  |  |  |  |  |  | c-kit expression lower ([1]; 2% DMSO for 4 days vs ND cells): 200 times; increase of band3 mRNA expression [1, 6]: 10000 fold; increase of β-globin mRNA expression [1, 6]: 1000 fold; growth rate of differentiating cells [2]: significant reduction |
| adnp1a-MO: splicing morpholino antisense oligonucleotide to intron3-exon4 boundary of zebrafish adnp1a, 5′-TAGTCCTGCAACATTTGAGAAACCA-3′ (all phosphorodiamidate morpholino (PMO)) | visible in some embryos | developmental delay, distorted tail morphology | 73 % of embryos | hypochromic | fewer blood cells in circulation | significant reduction in Hb content | Reduced staining |  |
| adnp1b-MO: translation-blocking morpholino to zebrafish adnp1b, 5′-TTGTTCACTGGGAGTTGAAACATTC-3′ (all phosphorodiamidate morpholino (PMO)) | visible in some embryos | developmental delay, distorted tail morphology | 92 % of embryos | hypochromic | fewer blood cells in circulation | significant reduction in Hb content | Reduced staining |  |
| adnp2a-MO: translation-blocking morpholino to zebrafish adnp2a, 5′-CACTGGAATCTGATACATTTTGCTC-3′ (all phosphorodiamidate morpholino (PMO)) | noticeable cardiac edema | no effect on the overall morphology |  |  |  | totally negative | No staining is visible | blood cells visible ([3]; between 33-48 hpf): no blood cells were evident; ectopic expression of band3 along the tail and yolk sinus ([5]; 4 dpf): 100 % of embryos; ectopic expression of gata1 along the tail and yolk sinus ([5]; 4 dpf): 86 % of embryos; gata1 expression normal in the ICM ([5]; 17-19 hpf): 100 % of embryos; lmo2 expression intact in the ICM ([5]; 17-19 hpf): 100 % of embryos; scl expression intact in the ICM ([5]; 17-19 hpf): 100 % of embryos; band3 expression almost absent ([5]; 28 hpf): 83 % of embryos; embryonic α-globin 1 expression significantly reduced ([5]; 28 hpf): 96 % of embryos; gata1 expression dramatically reduced ([5]; 28 hpf): 90 % of embryos; l-plastin expression intact ([5]; 28 hpf): 100 % of embryos; lys-C expression intact ([5]; 28 hpf): 100 % of embryos; band3 expression almost absent ([5]; 48 hpf): 97 % of embryos |
| adnp2b-MO: translation-blocking morpholino to zebrafish adnp2b, 5′-ACCTTTTACTGGAAACTGGTACATG-3′ (all phosphorodiamidate morpholino (PMO)) |  | no developmental delay or major morphological changes |  |  |  |  | Reduced staining | morphology ([3]; injection of higher doses of MO): distorted morphology |
